PubChem BioAssay (NCI)
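Step 1: Grow cells in 96-well plates. Step 2: Expose to compound for 48 hours at 5 concentrations. Step 3: Interpolate endpoints linearly; if unreached, use highest concentration. GI50 is the concentration that inhibits growth by half. TGI marks complete inhibition of growth.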

Key:
Experiment in all cases: inhibition of tumour cell growth, NCI panel, 48 h
SF-539 CNS = tested on: SF-539 CNS
SF-268 CNS = tested on: SF-268 CNS
CCRF-CEM leukemia = tested on: CCRF-CEM leukemia
CAKI-1 renal = tested on: CAKI-1 renal
DU-145 prostate = tested on: DU-145 prostate
M14 melanoma = tested on: M14 melanoma
A549 NSCLC = tested on: A549 NSCLC
HS 578T breast = tested on: HS 578T breast
NCI-H460 lung = tested on: NCI-H460 lung
KM12 colon = tested on: KM12 colon

Row | Compound | GI50 (SF-539 CNS) | TGI (SF-539 CNS) | GI50 (SF-268 CNS) | TGI (SF-268 CNS) | GI50 (CCRF-CEM leukemia) | TGI (CCRF-CEM leukemia) | GI50 (CAKI-1 renal) | TGI (CAKI-1 renal) | GI50 (DU-145 prostate) | TGI (DU-145 prostate) | GI50 (M14 melanoma) | TGI (M14 melanoma) | GI50 (A549 NSCLC) | TGI (A549 NSCLC) | GI50 (HS 578T breast) | TGI (HS 578T breast) | GI50 (NCI-H460 lung) | TGI (NCI-H460 lung) | GI50 (KM12 colon) | TGI (KM12 colon)
1 | CC(=O)O[C@H]1Cc2c([nH]c3ccccc23)[C@@H](c2ccc(Cl)cc2)N1C(=O)CCNC(C)(C)C | 4.69 µM | 9.12 µM | 4.21 µM | 9.24 µM | 5.12 µM | 14.8 µM | 2.77 µM | 7.01 µM | 4.01 µM | 8.45 µM | 2.05 µM | 6.96 µM | 5.19 µM | 10.1 µM | 3.76 µM | 13 µM | 4.26 µM | 10.4 µM | 4.33 µM | 9.51 µM
2 | c1ccc(-c2nn(-c3ccccc3)[n+](-c3ccccc3-c3ccccc3)n2)cc1 | 2.03 µM | 23.4 µM | 1.71 µM | > 47.7 µM | 0.743 µM | 43.7 µM | 16.5 µM | 89.9 µM | 3.11 µM | > 71.7 µM | 1.63 µM | 16.6 µM | 1.07 µM | > 100 µM | 1.88 µM | 31.5 µM | 1.04 µM | 8.6 µM | 0.532 µM | 11 µM
3 | NS(=O)(=O)c1ccc(N=Nc2cc3ccccc3c(C(=O)O)c2O)cc1 | – | > 100 µM | – | > 85.6 µM | – | > 100 µM | – | > 100 µM | – | > 100 µM | – | > 100 µM | – | > 100 µM | – | > 100 µM | – | > 87.5 µM | – | > 100 µM
4 | O=[N+]([O-])C1(CO)COC2(OC1)c1ccccc1-c1ccccc12 | – | > 85.6 µM | – | > 93.2 µM | – | 71 µM | – | > 100 µM | – | > 100 µM | – | > 88.4 µM | – | > 100 µM | – | > 100 µM | – | > 100 µM | – | > 100 µM
5 | O=C(N/N=C\c1cc(Br)cc(Br)c1O)N/N=C/c1cc(Br)cc(Br)c1O | 1.73 µM | 11 µM | 1.47 µM | 12 µM | 0.534 µM | 4.48 µM | 3.29 µM | 15.9 µM | 4.63 µM | 15.5 µM | 4.29 µM | 19 µM | 3.74 µM | 14.6 µM | 19.8 µM | 51.2 µM | 3.11 µM | 11.5 µM | 2.9 µM | 11.7 µM
6 | Fc1ccc(-c2ncn(C3CCNCC3)c2-c2ccnc(Oc3ccc(Oc4ccccc4)cc3)n2)cc1 | 4.2 µM | 7.92 µM | 3.94 µM | 7.71 µM | 5.22 µM | 10.3 µM | 3.92 µM | 7.74 µM | 4.2 µM | 7.75 µM | 4.31 µM | 7.99 µM | 4.09 µM | 7.84 µM | 1.73 µM | 6.89 µM | 3.66 µM | 7.28 µM | 4.16 µM | 7.8 µM
7 | COc1ccc(OC)c(/C=C/C(=O)c2ccc(SC)cc2)c1 | 2.55 µM | 6.99 µM | 2.58 µM | 7.46 µM | 2.22 µM | 13.8 µM | 2.39 µM | 18.5 µM | 4.37 µM | 18.3 µM | 12.6 µM | 27.1 µM | 28.9 µM | > 100 µM | 3.81 µM | > 100 µM | 3.82 µM | 17.6 µM | 4.9 µM | 27.7 µM
8 | Nc1ccc(Sc2ccc3c4c2cccc4c(=O)n2c4ccccc4nc32)cc1 | 3.11 µM | 15.6 µM | 5.42 µM | 80.2 µM | 2.35 µM | > 100 µM | 1.82 µM | 8.48 µM | 3.8 µM | 14.1 µM | 4.51 µM | 27.9 µM | 2.17 µM | 12.9 µM | 10.1 µM | > 100 µM | 1.9 µM | 14.3 µM | 6.63 µM | 58.6 µM
9 | CCOC(=O)Nc1ccc2nc(Sc3ccc(Cl)cc3)sc2c1 | 2.92 µM | 22.1 µM | 8.66 µM | > 100 µM | 4 µM | > 100 µM | 1.95 µM | 42 µM | 4.33 µM | > 48.5 µM | 1.66 µM | 24.6 µM | 6.3 µM | > 100 µM | 7.25 µM | 97.9 µM | 1.01 µM | > 76.9 µM | 0.684 µM | > 58.8 µM
10 | Clc1cc(-c2csc(Cl)c2)cs1 | – | > 100 µM | – | > 100 µM | – | > 100 µM | – | > 100 µM | – | > 100 µM | – | > 100 µM | – | > 100 µM | – | > 100 µM | – | > 100 µM | – | > 100 µM
11 | CCOC(=O)CCC(NC(=O)c1ccc(Nc2nc3cc(N)cc(N)c3nc2-c2ccccc2)cc1)C(=O)OCC (stereo not given) | 27.3 µM | > 100 µM | 34.2 µM | > 100 µM | 5.15 µM | > 100 µM | > 52.6 µM | > 100 µM | 65.8 µM | > 100 µM | 11.9 µM | > 24.4 µM | 27.8 µM | > 100 µM | 33.3 µM | 75 µM | > 29.3 µM | > 69.3 µM | > 52.9 µM | > 100 µM
12 | C=C(C)[C@@H]1CC[C@@H]2C(=CC[C@]3(C)C([C@H](C)CC/C=C(/C)C(=O)O)CC[C@@]23C)[C@@]1(C)CCC(=O)O (stereo not given in full) | – | 89 µM | – | > 100 µM | – | 53.7 µM | – | 68.4 µM | – | 60.5 µM | – | > 100 µM | – | > 100 µM | – | > 100 µM | – | 40.6 µM | – | 48.7 µM
13 | COc1cc2cc(Oc3ccc(NC(=O)Nc4cc(C(F)(F)F)cc(C(F)(F)F)c4)cc3)c(C)nc2cc1OCCN1CCCCC1 | 1.65 µM | 3.03 µM | 1.69 µM | 3.37 µM | 2.11 µM | 4.71 µM | 1.42 µM | 2.86 µM | 1.71 µM | 3.08 µM | 1.68 µM | 3.16 µM | 1.8 µM | 3.62 µM | 1.93 µM | 4.67 µM | 1.79 µM | 3.35 µM | 1.91 µM | 3.47 µM
